Data: US20200339691A1, “PROTEINACEOUS MOLECULES AND USES THEREFOR” (priority 2018, published 2020)
Where a SMILES comes first, the peptide text is derived from it. The star is where a group is joined. Myristoyl = CCCCCCCCCCCCCC(=O)*

Assays:
MDA-MB-231 cells = type: cell-based, human; conditions: 50 μM peptide, 48 hours, n = 1
Description: (§1) Non-adherent cells were removed during the washing steps.

[1] = tested on: CD44^hiCD24^lo CSCs in MDA-MB-231 cells; experiment: FACS analysis of CD44^hiCD24^lo cancer stem cells in MDA-MB-231 cells treated with P1 analogues; type: cell-based, human; conditions: 50 μM peptide, 48 hours; for CD44^hiCD24^lo CSCs (%) / COI, Live Single CD44^hiCD24^lo CSCs (Cell Count): n = 1; for Average Inhibition of CSCs (%) / CD44^hiCD24^lo CSCs (%) Repeat 1 / CD44^hiCD24^lo CSCs (%) Repeat 2 / CD44^hiCD24^lo CSCs (%) Repeat 3: n = 3
Description: Analogues of P1 (Table 6) were designed and synthesized in accordance with the procedure of Example 5. The ability of these analogues to inhibit cancer stem cells was determined using FACS analysis on MDA-MB-231 cells, which constitutively contain approximately 90% CD44^hiCD24^lo cancer stem cells, treated with the peptides.
as §1
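For COI, Live Single Cells (Cell Count) in this document: live means Hoechst-negative events among single cells.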

| Compound | COI (Cell Count) (MDA-MB-231 cells) | COI, Live Single Cells (Cell Count) (MDA-MB-231 cells) | COI, Single (Cell Count) (MDA-MB-231 cells) | Total Cell Count (MDA-MB-231 cells) | Inhibition of CSCs (%) Repeat 1 [1] [%] | Inhibition of CSCs (%) Repeat 2 [1] [%] | Inhibition of CSCs (%) Repeat 3 [1] [%] | CD44^hiCD24^lo CSCs (%) [1] [%] | COI, Live Single CD44^hiCD24^lo CSCs (Cell Count) [1] | Average Inhibition of CSCs (%) [1] [%] | CD44^hiCD24^lo CSCs (%) Repeat 1 [1] [%] | CD44^hiCD24^lo CSCs (%) Repeat 2 [1] [%] | CD44^hiCD24^lo CSCs (%) Repeat 3 [1] [%] |
| --- | --- | --- | --- | --- | --- | --- | --- | --- | --- | --- | --- | --- | --- |
| CCCCCCCCCCCCCC(=O)N[C@@H](CC(C)C)C(=O)N[C@H](C(=O)N[C@@H](Cc1ccccc1)C(=O)N[C@H](C(=O)N[C@@H](Cc1ccc(O)cc1)C(=O)N[C@@H](CCCNC(=N)N)C(=O)N[C@@H](CC(C)C)C(=O)N[C@@H](CCCNC(=N)N)C(=O)N[C@@H](CCCCN)C(=O)NCC(=O)N[C@@H](CCCNC(=N)N)C(=O)N[C@@H](CCSC)C(=O)N[C@@H](CCSC)C(=O)N[C@@H](CC(=O)O)C(=O)N[C@H](C(=O)N[C@@H](CCCCN)C(=O)N[C@@H](CCCCN)C(N)=O)C(C)C)[C@@H](C)CC)[C@@H](C)O [Peptide 2853814, Myristoyl-LTFIYRLRKGRMMDVKK-NH2] (Myristoyl-LTFIYRLRKGRMMDVKK-NH2) | 437 | 368 | 387 | 999 | 73.80 | 76.59 | 77.85 | 13.86 | 51 | 76.08 | 23.48 | 21.00 | 19.88 |
| CCCCCCCCCCCCCC(=O)N[C@@H](CC(C)C)C(=O)N[C@H](C(=O)N[C@@H](Cc1ccccc1)C(=O)N[C@H](C(=O)N[C@@H](Cc1c[nH]cn1)C(=O)N[C@@H](CCCNC(=N)N)C(=O)N[C@@H](CC(C)C)C(=O)N[C@@H](CCCNC(=N)N)C(=O)N[C@@H](CCCCN)C(=O)NCC(=O)N[C@@H](CCCNC(=N)N)C(=O)N[C@@H](CCSC)C(=O)N[C@@H](CCSC)C(=O)N[C@@H](CC(=O)O)C(=O)N[C@H](C(=O)N[C@@H](CCCCN)C(=O)N[C@@H](CCCCN)C(N)=O)C(C)C)[C@@H](C)CC)[C@@H](C)O [Peptide 2853815, Myristoyl-LTFIHRLRKGRMMDVKK-NH2] (Myristoyl-LTFIHRLRKGRMMDVKK-NH2) | 320 | 279 | 300 | 1114 | 6.67 | 7.21 | 8.72 | 71.33 | 199 | 7.53 | 83.65 | 83.25 | 81.91 |
| CCCCCCCCCCCCCC(=O)N[C@@H](CC(C)C)C(=O)N[C@H](C(=O)N[C@@H](Cc1ccccc1)C(=O)N[C@H](C(=O)N[C@@H](CC(C)C)C(=O)N[C@@H](CCCNC(=N)N)C(=O)N[C@@H](CC(C)C)C(=O)N[C@@H](CCCNC(=N)N)C(=O)N[C@@H](CCCCN)C(=O)NCC(=O)N[C@@H](CCCNC(=N)N)C(=O)N[C@@H](CCSC)C(=O)N[C@@H](CCSC)C(=O)N[C@@H](CC(=O)O)C(=O)N[C@H](C(=O)N[C@@H](CCCCN)C(=O)N[C@@H](CCCCN)C(N)=O)C(C)C)[C@@H](C)CC)[C@@H](C)O [Peptide 2853816, Myristoyl-LTFILRLRKGRMMDVKK-NH2] (Myristoyl-LTFILRLRKGRMMDVKK-NH2) | 160 | 96 | 130 | 1747 | 69.57 | 68.04 | 65.42 | 12.50 | 12 | 67.68 | 27.27 | 28.67 | 31.03 |
| CCCCCCCCCCCCCC(=O)N[C@@H](CC(C)C)C(=O)N[C@H](C(=O)N[C@@H](Cc1ccccc1)C(=O)N[C@H](C(=O)N[C@@H](Cc1ccccc1)C(=O)N[C@@H](CCC(=O)O)C(=O)N[C@@H](CC(C)C)C(=O)N[C@@H](CCCNC(=N)N)C(=O)N[C@@H](CCCCN)C(=O)NCC(=O)N[C@@H](CCCNC(=N)N)C(=O)N[C@@H](CCSC)C(=O)N[C@@H](CCSC)C(=O)N[C@@H](CC(=O)O)C(=O)N[C@H](C(=O)N[C@@H](CCCCN)C(=O)N[C@@H](CCCCN)C(N)=O)C(C)C)[C@@H](C)CC)[C@@H](C)O [Peptide 2853817, Myristoyl-LTFIFELRKGRMMDVKK-NH2] (Myristoyl-LTFIFELRKGRMMDVKK-NH2) | 511 | 407 | 463 | 899 | 88.00 | 91.08 | 82.27 | 13.76 | 56 | 87.12 | 10.75 | 8.00 | 15.91 |
| CCCCCCCCCCCCCC(=O)N[C@@H](CC(C)C)C(=O)N[C@H](C(=O)N[C@@H](Cc1ccccc1)C(=O)N[C@H](C(=O)N[C@@H](Cc1ccccc1)C(=O)N[C@H](C(=O)N[C@@H](CC(C)C)C(=O)N[C@@H](CCCNC(=N)N)C(=O)N[C@@H](CCCCN)C(=O)NCC(=O)N[C@@H](CCCNC(=N)N)C(=O)N[C@@H](CCSC)C(=O)N[C@@H](CCSC)C(=O)N[C@@H](CC(=O)O)C(=O)N[C@H](C(=O)N[C@@H](CCCCN)C(=O)N[C@@H](CCCCN)C(N)=O)C(C)C)C(C)C)[C@@H](C)CC)[C@@H](C)O [Peptide 2853818, Myristoyl-LTFIFVLRKGRMMDVKK-NH2] (Myristoyl-LTFIFVLRKGRMMDVKK-NH2) | 33 | 20 | 25 | 275 | 88.46 | 97.94 | 93.25 | 25.00 | 5 | 93.21 | 10.34 | 1.85 | 6.06 |
| CCCCCCCCCCCCCC(=O)N[C@@H](CC(C)C)C(=O)N[C@H](C(=O)N[C@@H](Cc1ccccc1)C(=O)N[C@H](C(=O)N[C@@H](Cc1ccccc1)C(=O)N[C@@H](CCCNC(=N)N)C(=O)N[C@@H](Cc1ccccc1)C(=O)N[C@@H](CCCNC(=N)N)C(=O)N[C@@H](CCCCN)C(=O)NCC(=O)N[C@@H](CCCNC(=N)N)C(=O)N[C@@H](CCSC)C(=O)N[C@@H](CCSC)C(=O)N[C@@H](CC(=O)O)C(=O)N[C@H](C(=O)N[C@@H](CCCCN)C(=O)N[C@@H](CCCCN)C(N)=O)C(C)C)[C@@H](C)CC)[C@@H](C)O [Peptide 2853819, Myristoyl-LTFIFRFRKGRMMDVKK-NH2] (Myristoyl-LTFIFRFRKGRMMDVKK-NH2) | 563 | 191 | 372 | 4572 | 98.02 | 89.55 | 93.19 | 2.62 | 5 | 93.59 | 1.78 | 9.38 | 6.11 |
| CCCCCCCCCCCCCC(=O)N[C@@H](CC(C)C)C(=O)N[C@H](C(=O)N[C@@H](Cc1ccccc1)C(=O)N[C@H](C(=O)N[C@@H](Cc1ccccc1)C(=O)N[C@@H](CCCNC(=N)N)C(=O)N[C@H](C(=O)N[C@@H](CCCNC(=N)N)C(=O)N[C@@H](CCCCN)C(=O)NCC(=O)N[C@@H](CCCNC(=N)N)C(=O)N[C@@H](CCSC)C(=O)N[C@@H](CCSC)C(=O)N[C@@H](CC(=O)O)C(=O)N[C@H](C(=O)N[C@@H](CCCCN)C(=O)N[C@@H](CCCCN)C(N)=O)C(C)C)C(C)C)[C@@H](C)CC)[C@@H](C)O [Peptide 2853820, Myristoyl-LTFIFRVRKGRMMDVKK-NH2] (Myristoyl-LTFIFRVRKGRMMDVKK-NH2) | 541 | 211 | 346 | 3098 | 89.75 | 90.39 | 91.76 | 6.64 | 14 | 90.63 | 9.19 | 8.62 | 7.40 |
| CCCCCCCCCCCCCC(=O)N[C@@H](CC(C)C)C(=O)N[C@H](C(=O)N[C@@H](Cc1ccccc1)C(=O)N[C@H](C(=O)N[C@@H](Cc1ccccc1)C(=O)N[C@@H](CCCNC(=N)N)C(=O)N[C@@H](CCC(=O)O)C(=O)N[C@@H](CCCNC(=N)N)C(=O)N[C@@H](CCCCN)C(=O)NCC(=O)N[C@@H](CCCNC(=N)N)C(=O)N[C@@H](CCSC)C(=O)N[C@@H](CCSC)C(=O)N[C@@H](CC(=O)O)C(=O)N[C@H](C(=O)N[C@@H](CCCCN)C(=O)N[C@@H](CCCCN)C(N)=O)C(C)C)[C@@H](C)CC)[C@@H](C)O [Peptide 2853821, Myristoyl-LTFIFRERKGRMMDVKK-NH2] (Myristoyl-LTFIFRERKGRMMDVKK-NH2) | 2756 | 2223 | 2240 | 7421 | 85.54 | 87.64 | 89.89 | 13.00 | 289 | 87.69 | 12.96 | 11.09 | 9.08 |
